Biological target: T1, RET (Homo sapiens, UniProt P07949)
T1 construct: purchased Thermo Fisher Scientific (Life Technologies) SelectScreen
Experiment: SelectScreen Z'LYTE
Format: biochemical
In short: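 NU5455 was profiled across the SelectScreen Broad panel of kinase activity and binding assays. Z'LYTE reactions such as CSF1R ran at apparent Km ATP, while the Adapta CAMK1 assay used ATP listed as 10. Values are given as percent.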

T1 sequence (P07949 29-1114): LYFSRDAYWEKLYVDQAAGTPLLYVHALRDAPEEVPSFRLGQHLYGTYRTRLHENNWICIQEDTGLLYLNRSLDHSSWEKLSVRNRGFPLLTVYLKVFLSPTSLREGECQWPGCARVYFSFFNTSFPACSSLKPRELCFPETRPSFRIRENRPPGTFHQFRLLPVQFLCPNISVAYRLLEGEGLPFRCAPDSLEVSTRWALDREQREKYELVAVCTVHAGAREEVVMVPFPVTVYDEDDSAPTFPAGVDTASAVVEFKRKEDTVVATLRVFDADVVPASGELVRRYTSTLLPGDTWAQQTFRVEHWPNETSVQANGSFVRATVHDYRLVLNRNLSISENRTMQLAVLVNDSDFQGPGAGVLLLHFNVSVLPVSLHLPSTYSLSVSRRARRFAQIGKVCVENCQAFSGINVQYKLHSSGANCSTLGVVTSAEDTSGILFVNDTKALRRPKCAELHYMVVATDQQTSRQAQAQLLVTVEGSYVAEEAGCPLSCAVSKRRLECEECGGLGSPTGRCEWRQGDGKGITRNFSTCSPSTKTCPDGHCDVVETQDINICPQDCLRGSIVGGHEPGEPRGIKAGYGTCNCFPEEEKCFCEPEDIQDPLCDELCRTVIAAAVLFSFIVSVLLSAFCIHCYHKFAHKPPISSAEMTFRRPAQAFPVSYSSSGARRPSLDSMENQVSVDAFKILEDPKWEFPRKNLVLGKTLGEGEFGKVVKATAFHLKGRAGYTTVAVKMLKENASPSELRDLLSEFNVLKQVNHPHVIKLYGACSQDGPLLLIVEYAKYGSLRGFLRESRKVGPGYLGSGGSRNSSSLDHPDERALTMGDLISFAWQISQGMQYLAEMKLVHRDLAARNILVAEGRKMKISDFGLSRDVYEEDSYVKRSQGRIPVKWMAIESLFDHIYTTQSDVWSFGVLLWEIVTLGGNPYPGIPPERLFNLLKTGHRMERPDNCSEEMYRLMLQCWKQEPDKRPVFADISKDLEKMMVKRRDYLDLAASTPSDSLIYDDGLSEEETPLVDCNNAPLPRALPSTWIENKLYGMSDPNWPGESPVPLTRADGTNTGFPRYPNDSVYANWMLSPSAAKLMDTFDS

For `CN(C(=O)CN1CCOCC1)c1ccc2sc3c(-c4cccc5c(=O)cc(N6CC7CCC(C6)O7)oc45)cccc3c2c1` [NU5455], the inhibition at 1 µM was 5.2%.
